Several values for one entry are separate records, joined by “and”; a condition that tells them apart may be missing. Equal entries are not always repeated.
Key:
CDK12–cyclin K and DDB1 = target: T1, CDK12–cyclin K and DDB1 (Homo sapiens, UniProt Q16531+Q9NYV4, K965R); assay: TR-FRET Kd determination, quadratic fit, 50 nM or 10 nM CDK12–cyclin K; type: binding
T1 construct: His6–CDK12 (a.a. 713–1,052); full-length or beta-propeller B domain deletion (ΔBPB: a.a. 396–705 deleted) constructs of His6–DDB1ΔBPB, StrepII–Avi–DDB1, or His6–Spy–DDB1; made in house; host or cells: Trichoplusia ni High Five insect cells (baculovirus)
Source text: Equation (2) is a quadratic binding equation used for Kd determination,where Top and Bottom refer to the curve plateaus. […]

CDK12–cyclin K = CDK12–cyclin K (Homo sapiens, UniProt Q9NYV4); assay: Lanthascreen kinase binding assay, CDK12; details: for Lanthascreen raw signal, sheet CDK12: duplicates
Description: Lanthascreen experiments were performed using commercially available reagents (Thermo Fisher) and according to the manufacturer’s instructions.

[1] = 10 nM CDK12-cyclin K, compound 0.468 nM
[2] = 10 nM CDK12-cyclin K, compound 2.16 nM
[3] = 10 nM CDK12-cyclin K, compound 3.6 nM
[4] = 10 nM CDK12-cyclin K, compound 7.92 nM
[5] = 10 nM CDK12-cyclin K, compound 15.84 nM
[6] = 10 nM CDK12-cyclin K, compound 30.96 nM
[7] = 10 nM CDK12-cyclin K, compound 62.6399 nM
[8] = 10 nM CDK12-cyclin K, compound 125.279 nM
[9] = 10 nM CDK12-cyclin K, compound 244.8 nM
[10] = 10 nM CDK12-cyclin K, compound 993.6 nM
[11] = 10 nM CDK12-cyclin K, compound 2001.6 nM
[12] = 50 nM CDK12-cyclin K, compound 0.468 nM
[13] = 50 nM CDK12-cyclin K, compound 2.16 nM
[14] = 50 nM CDK12-cyclin K, compound 3.6 nM
[15] = 50 nM CDK12-cyclin K, compound 7.92 nM
[16] = 50 nM CDK12-cyclin K, compound 15.84 nM
[17] = 50 nM CDK12-cyclin K, compound 30.96 nM
[18] = 50 nM CDK12-cyclin K, compound 62.6399 nM
[19] = 50 nM CDK12-cyclin K, compound 125.279 nM
[20] = 50 nM CDK12-cyclin K, compound 244.8 nM
[21] = 50 nM CDK12-cyclin K, compound 993.6 nM
[22] = 50 nM CDK12-cyclin K, compound 2001.6 nM
[23] = compound 0.038147 nM, series r37
[24] = compound 0.152588 nM, series r37
[25] = compound 0.610352 nM, series r37
[26] = compound 9.76563 nM, series r37
[27] = compound 39.0625 nM, series r37
[28] = 10 nM CDK12-cyclin K + 100 nM DDB1, n = 1

T1 sequence (Q9NYV4 713-1052 K965R): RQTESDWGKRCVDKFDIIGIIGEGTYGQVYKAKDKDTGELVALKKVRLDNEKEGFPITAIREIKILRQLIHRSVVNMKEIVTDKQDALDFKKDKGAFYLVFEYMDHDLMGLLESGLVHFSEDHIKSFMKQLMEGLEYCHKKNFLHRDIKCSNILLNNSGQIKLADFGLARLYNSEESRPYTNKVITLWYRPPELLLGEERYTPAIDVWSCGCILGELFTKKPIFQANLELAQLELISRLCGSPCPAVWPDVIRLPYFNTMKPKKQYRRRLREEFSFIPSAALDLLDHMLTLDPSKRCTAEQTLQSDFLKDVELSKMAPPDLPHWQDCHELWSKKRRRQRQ
T1 sequence (O75909 1-267 partner): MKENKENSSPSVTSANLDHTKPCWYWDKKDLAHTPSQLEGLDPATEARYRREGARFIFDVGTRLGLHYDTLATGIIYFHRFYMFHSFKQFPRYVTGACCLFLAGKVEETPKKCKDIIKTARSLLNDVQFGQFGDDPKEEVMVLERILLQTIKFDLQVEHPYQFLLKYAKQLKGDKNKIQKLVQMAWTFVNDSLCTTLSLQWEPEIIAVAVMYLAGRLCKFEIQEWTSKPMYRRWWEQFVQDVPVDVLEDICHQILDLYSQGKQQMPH
T1 sequence (Q16531 whole entry): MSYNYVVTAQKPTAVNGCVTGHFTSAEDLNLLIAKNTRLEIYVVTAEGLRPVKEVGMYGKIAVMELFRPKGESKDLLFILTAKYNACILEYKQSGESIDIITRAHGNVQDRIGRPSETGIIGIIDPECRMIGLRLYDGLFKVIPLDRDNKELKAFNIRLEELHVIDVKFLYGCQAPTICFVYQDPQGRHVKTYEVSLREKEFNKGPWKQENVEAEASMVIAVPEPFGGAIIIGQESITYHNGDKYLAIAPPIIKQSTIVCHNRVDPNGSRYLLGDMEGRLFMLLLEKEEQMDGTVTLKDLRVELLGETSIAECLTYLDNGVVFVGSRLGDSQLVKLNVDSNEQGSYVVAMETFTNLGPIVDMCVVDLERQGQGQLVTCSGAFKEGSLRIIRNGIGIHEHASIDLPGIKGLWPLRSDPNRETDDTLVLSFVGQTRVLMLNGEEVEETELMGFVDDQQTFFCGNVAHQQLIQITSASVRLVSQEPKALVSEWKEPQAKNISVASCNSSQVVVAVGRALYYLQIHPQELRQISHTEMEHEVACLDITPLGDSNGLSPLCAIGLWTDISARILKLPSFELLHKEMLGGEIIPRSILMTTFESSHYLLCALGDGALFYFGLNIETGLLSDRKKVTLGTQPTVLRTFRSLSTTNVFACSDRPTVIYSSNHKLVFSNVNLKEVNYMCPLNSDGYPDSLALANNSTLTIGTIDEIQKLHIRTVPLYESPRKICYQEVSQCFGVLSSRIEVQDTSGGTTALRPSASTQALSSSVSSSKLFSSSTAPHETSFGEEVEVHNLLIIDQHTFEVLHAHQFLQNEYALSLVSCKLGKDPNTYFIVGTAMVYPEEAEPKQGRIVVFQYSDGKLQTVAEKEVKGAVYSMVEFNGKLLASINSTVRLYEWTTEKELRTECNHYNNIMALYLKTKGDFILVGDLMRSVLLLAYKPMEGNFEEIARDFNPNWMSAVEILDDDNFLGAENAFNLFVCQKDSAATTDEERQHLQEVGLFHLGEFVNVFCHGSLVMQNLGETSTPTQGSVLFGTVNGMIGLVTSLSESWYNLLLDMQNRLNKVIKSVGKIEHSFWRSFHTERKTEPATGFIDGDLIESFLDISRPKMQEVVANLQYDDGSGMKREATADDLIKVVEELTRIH
Sequence of CDK12–cyclin K (Q9NYV4 713-1052): as the sequence (Q9NYV4 713-1052 K965R) above, with R253K counted along it
Sequence of CDK12–cyclin K (O75909 1-267 partner limits assumed): as the sequence (O75909 1-267 partner) above

CCC(CO)Nc1nc(NCc2ccc(-c3ccccn3)cc2)c2ncn(C(C)C)c2n1 (centres unmarked) [CR8, reference compound]
TR-FRET signal (CDK12–cyclin K and DDB1; [1]): 0.1037 | TR-FRET signal (CDK12–cyclin K and DDB1; [2]): 0.135 | TR-FRET signal (CDK12–cyclin K and DDB1; [3]): 0.1982 | TR-FRET signal (CDK12–cyclin K and DDB1; [4]): 0.284 | TR-FRET signal (CDK12–cyclin K and DDB1; [5]): 0.3713 | TR-FRET signal (CDK12–cyclin K and DDB1; [6]): 0.4536 | TR-FRET signal (CDK12–cyclin K and DDB1; [7]): 0.4778 | TR-FRET signal (CDK12–cyclin K and DDB1; [8]): 0.4982 | TR-FRET signal (CDK12–cyclin K and DDB1; [9]): 0.5242 | TR-FRET signal (CDK12–cyclin K and DDB1; [10]): 0.5359 | TR-FRET signal (CDK12–cyclin K and DDB1; [11]): 0.5508 | TR-FRET signal (CDK12–cyclin K and DDB1; [12]): 0.2224 | TR-FRET signal (CDK12–cyclin K and DDB1; [13]): 0.2548 | TR-FRET signal (CDK12–cyclin K and DDB1; [14]): 0.3253 | TR-FRET signal (CDK12–cyclin K and DDB1; [15]): 0.4723 | TR-FRET signal (CDK12–cyclin K and DDB1; [16]): 0.7533 | TR-FRET signal (CDK12–cyclin K and DDB1; [17]): 1.3518 | TR-FRET signal (CDK12–cyclin K and DDB1; [18]): 2.31 | TR-FRET signal (CDK12–cyclin K and DDB1; [19]): 2.851 | TR-FRET signal (CDK12–cyclin K and DDB1; [20]): 2.999 | TR-FRET signal (CDK12–cyclin K and DDB1; [21]): 3.086 | TR-FRET signal (CDK12–cyclin K and DDB1; [22]): 3.013 | Lanthascreen raw signal, sheet CDK12 (CDK12–cyclin K; [23]): 0.01304 and 0.01325 | Lanthascreen raw signal, sheet CDK12 (CDK12–cyclin K; compound 0.038147 nM, series r49): 0.007695 and 0.007446 | Lanthascreen raw signal, sheet CDK12 (CDK12–cyclin K; [24]): 0.01428 and 0.01359 | Lanthascreen raw signal, sheet CDK12 (CDK12–cyclin K; compound 0.152588 nM, series r49): 0.009378 and 0.01005 | Lanthascreen raw signal, sheet CDK12 (CDK12–cyclin K; [25]): 0.015 and 0.0141 | Lanthascreen raw signal, sheet CDK12 (CDK12–cyclin K; compound 0.610352 nM, series r49): 0.009165 and 0.0112 | Lanthascreen raw signal, sheet CDK12 (CDK12–cyclin K; compound 0.76 nM, series r25): 0.01077 and 0.009668 | Lanthascreen raw signal, sheet CDK12 (CDK12–cyclin K; compound 1.02544 nM, series r1): 0.009016 and 0.007993 | Lanthascreen raw signal, sheet CDK12 (CDK12–cyclin K; compound 3.15521 nM, series r1): 0.009443 and 0.008694 | Lanthascreen raw signal, sheet CDK12 (CDK12–cyclin K; compound 4.57247 nM, series r25): 0.009656 and 0.009902 | Lanthascreen raw signal, sheet CDK12 (CDK12–cyclin K; compound 9.46563 nM, series r1): 0.008963 and 0.008112 | Lanthascreen raw signal, sheet CDK12 (CDK12–cyclin K; [26]): 0.01368 and 0.01299 | Lanthascreen raw signal, sheet CDK12 (CDK12–cyclin K; compound 9.76563 nM, series r49): 0.009408 and 0.009212 | Lanthascreen raw signal, sheet CDK12 (CDK12–cyclin K; compound 13.7174 nM, series r25): 0.01017 and 0.01059 | Lanthascreen raw signal, sheet CDK12 (CDK12–cyclin K; compound 31.5521 nM, series r1): 0.006752 and 0.007539 | Lanthascreen raw signal, sheet CDK12 (CDK12–cyclin K; [27]): 0.01193 and 0.01223 | Lanthascreen raw signal, sheet CDK12 (CDK12–cyclin K; compound 39.0625 nM, series r49): 0.009305 and 0.008784 | Lanthascreen raw signal, sheet CDK12 (CDK12–cyclin K; compound 41.1523 nM, series r25): 0.009709 and 0.009531 | Lanthascreen raw signal, sheet CDK12 (CDK12–cyclin K; compound 99.3891 nM, series r1): 0.006201 and 0.006527 | Lanthascreen raw signal, sheet CDK12 (CDK12–cyclin K; compound 123.457 nM, series r25): 0.008131 and 0.007441 | Lanthascreen raw signal, sheet CDK12 (CDK12–cyclin K; compound 156.25 nM, series r37): 0.00959 and 0.00993 | Lanthascreen raw signal, sheet CDK12 (CDK12–cyclin K; compound 156.25 nM, series r49): 0.007819 and 0.007288 | Lanthascreen raw signal, sheet CDK12 (CDK12–cyclin K; compound 315.521 nM, series r1): 0.007121 and 0.006383 | Lanthascreen raw signal, sheet CDK12 (CDK12–cyclin K; compound 370.37 nM, series r25): 0.007201 and 0.007104 | Lanthascreen raw signal, sheet CDK12 (CDK12–cyclin K; compound 625 nM, series r37): 0.007458 and 0.007383 | Lanthascreen raw signal, sheet CDK12 (CDK12–cyclin K; compound 625 nM, series r49): 0.006302 and 0.006427 | Lanthascreen raw signal, sheet CDK12 (CDK12–cyclin K; compound 2500 nM, series r37): 0.006338 and 0.006017 | Lanthascreen raw signal, sheet CDK12 (CDK12–cyclin K; compound 2500 nM, series r49): 0.006233 and 0.005662 | Lanthascreen raw signal, sheet CDK12 (CDK12–cyclin K; compound 3155.21 nM, series r1): 0.005736 and 0.005607 | Lanthascreen raw signal, sheet CDK12 (CDK12–cyclin K; compound 3333.33 nM, series r25): 0.00631 and 0.006815 | Lanthascreen raw signal, sheet CDK12 (CDK12–cyclin K; compound 10000 nM, series r25): 0.004829 and 0.005941 | Lanthascreen raw signal, sheet CDK12 (CDK12–cyclin K; compound 10000 nM, series r37): 0.006588 and 0.005825 | Lanthascreen raw signal, sheet CDK12 (CDK12–cyclin K; compound 10000 nM, series r49): 0.006042 and 0.005923 | Lanthascreen raw signal, sheet CDK12 (CDK12–cyclin K; compound 10002 nM, series r1): 0.006385 and 0.006398

CC[C@H](CO)Nc1nc(NCc2nc3cc(Cl)c(Cl)cc3[nH]2)c2ncn(C(C)C)c2n1 [DS17]
Kd (CDK12–cyclin K and DDB1; [28]): < 1 nM | TR-FRET Kd* (CDK12–cyclin K and DDB1; [28]): subnanomolar range | TR-FRET signal (CDK12–cyclin K and DDB1; [1]): 0.1296 | TR-FRET signal (CDK12–cyclin K and DDB1; [2]): 0.2552 | TR-FRET signal (CDK12–cyclin K and DDB1; [3]): 0.4087 | TR-FRET signal (CDK12–cyclin K and DDB1; [4]): 0.5094 | TR-FRET signal (CDK12–cyclin K and DDB1; [5]): 0.5468 | TR-FRET signal (CDK12–cyclin K and DDB1; [6]): 0.5623 | TR-FRET signal (CDK12–cyclin K and DDB1; [7]): 0.5693 | TR-FRET signal (CDK12–cyclin K and DDB1; [8]): 0.582 | TR-FRET signal (CDK12–cyclin K and DDB1; [9]): 0.5785 | TR-FRET signal (CDK12–cyclin K and DDB1; [10]): 0.5613 | TR-FRET signal (CDK12–cyclin K and DDB1; [11]): 0.5626 | Kd (CDK12–cyclin K and DDB1; 50 nM CDK12-cyclin K + 100 nM DDB1, n = 1): < 1 nM | TR-FRET signal (CDK12–cyclin K and DDB1; [12]): 0.2322 | TR-FRET signal (CDK12–cyclin K and DDB1; [13]): 0.3077 | TR-FRET signal (CDK12–cyclin K and DDB1; [14]): 0.4714 | TR-FRET signal (CDK12–cyclin K and DDB1; [15]): 0.8383 | TR-FRET signal (CDK12–cyclin K and DDB1; [16]): 1.774 | TR-FRET signal (CDK12–cyclin K and DDB1; [17]): 3.053 | TR-FRET signal (CDK12–cyclin K and DDB1; [18]): 3.258 | TR-FRET signal (CDK12–cyclin K and DDB1; [19]): 3.326 | TR-FRET signal (CDK12–cyclin K and DDB1; [20]): 3.353 | TR-FRET signal (CDK12–cyclin K and DDB1; [21]): 3.25 | TR-FRET signal (CDK12–cyclin K and DDB1; [22]): 3.218 | CDK inhibitory selectivity, result in words (CDK12–cyclin K; Lanthascreen across CDK2/9/12): CDK12 selective | IC50 (CDK12–cyclin K; Supplementary Table 2, read-out: Lanthascreen IC50 [nM] CDK12): 117 nM | Lanthascreen raw signal, sheet CDK12 (CDK12–cyclin K; [23]): 0.01439 and 0.01466 | Lanthascreen raw signal, sheet CDK12 (CDK12–cyclin K; [24]): 0.01355 and 0.01465 | Lanthascreen raw signal, sheet CDK12 (CDK12–cyclin K; [25]): 0.01399 and 0.01278 | Lanthascreen raw signal, sheet CDK12 (CDK12–cyclin K; [26]): 0.01302 and 0.01264 | Lanthascreen raw signal, sheet CDK12 (CDK12–cyclin K; [27]): 0.01048 and 0.01099 | Lanthascreen raw signal, sheet CDK12 (CDK12–cyclin K; compound 156.25 nM, series r37): 0.008496 and 0.009307 | Lanthascreen raw signal, sheet CDK12 (CDK12–cyclin K; compound 625 nM, series r37): 0.00749 and 0.007398 | Lanthascreen raw signal, sheet CDK12 (CDK12–cyclin K; compound 2500 nM, series r37): 0.006169 and 0.00594 | Lanthascreen raw signal, sheet CDK12 (CDK12–cyclin K; compound 10000 nM, series r37): 0.005029 and 0.005256

From publication PMC10746543, “Design principles for cyclin K molecular glue degraders” (Nature Chemical Biology, 2023)
